# Assay results from patent US20120053211A1, “TREATMENT OF PANCREATIC CANCER” (ARDEA BIOSCIENCES, INC., priority 2009, published 2012).
# Values joined by “and” are separate entries in the source; they are usually repeats but may differ in a detail not shown here. Equal values may be shown once.
# Test system: Bx-PC3-e242 Xenograft
# Experiment: Bx-PC3-e242 Xenograft Study
# Assay type: in vivo, female (nu/nu) mice
# Set-up: key to Mean BW Nadir: — indicates no decrease in mean body weight was observed
# Settings: for % TGI: D15, compared to Group 1; for % TGD: [(T − C)/C] × 100; for MTV (n) D54: day of TGD analysis, excludes animals reaching endpoint; for MTV (n) D15: day of TGI analysis, includes animals at endpoint; for T − C: difference of median TTE versus control group (Group 1); for Mean TTE / Median TTE: endpoint 1500 mm^3; for Individual TTE values: individual animals 1-9, endpoint 1500 mm^3, study duration 54 days; for Mean BW Nadir: lowest group mean body weight as % change from Day 1; for No. of NTR: non-treatment-related death; for No. of PR: partial regression, 9 animals
# Method: In vivo activity of compound B: Bx-PC3-e242 Xenograft Study Bx-PC3-e242 cells were injected into 11-week-old female (nu/nu) mice. Tumors were allowed to reach 115.5-116.7 mm^3 (group mean tumor range); 63-196 mm^3 (Individual Tumor Range) in size (23 days) and mice were randomized into 6 groups of 9 animals (body weight range 18.0-25.2 g). Mice were treated by according to the chart below:
# Tumors were measured with a caliper and tumor volumes calculated using the following formula:
# where w=width and l=length in mm of a tumor. Tumor weight is estimated with the assumption that 1 mg is equivalent to 1 mm^3 of tumor volume.
# Each animal was euthanized when the tumor reached endpoint size or at the end of the study, whichever comes first. The time to endpoint (TTE) for each mouse is calculated according to the following equation
# The study endpoint was 1500 mm^3, with a study duration of 54 days.
# Treatment may cause partial regression (PR) or complete regression (CR) of the tumor in an animal. In a PR response, the tumor volume is 50% or less of its Day 1 volume for three consecutive measurements during the course of the study.
# Treatment outcome is evaluated by tumor growth delay (TGD), defined as the increase in the median time to endpoint (TTE) in a treatment group compared to the control group:
# Response to treatment was also evaluated for tumor growth inhibition (TGI), defined as the difference between the median tumor volumes (MTVs) of treated and control mice.
# Animals were weighed daily for the first five days of the study and then twice weekly. The mice are observed frequently for overt signs of any adverse, treatment-related side effects, and clinical signs of toxicity were recorded when observed.
# [1] = Group 3: Cmpd B 25 mg/kg po qd × 14
# [2] = Group 4: Cmpd B 6.25 mg/kg po bid × 14 first day 1 dose
# [3] = Group 6: Cmpd B 12.5 mg/kg po, then 6.25 mg/kg po bid × 11 first day 1 dose (start on day 4)
compound,measurement,setting,value
"Cc1c(Nc2ccc(I)cc2F)c(NS(=O)(=O)C2CC2)cn(C)c1=O [Compound B, N-(4-(2-fluoro-4-iodophenylamino)-1,5-dimethyl-6-oxo-1,6-dihydropyridin-3-yl)cyclopropanesulfonamide]",Weekly Median Tumor Volume (number of animals in parentheses),"D1, Group 3: Cmpd B 25 mg/kg po qd × 14",108 (9) mm^3
same,Weekly Median Tumor Volume (number of animals in parentheses),"D1, Group 4: Cmpd B 6.25 mg/kg po bid × 14 first day 1 dose",108 (9) mm^3
same,Weekly Median Tumor Volume (number of animals in parentheses),"D1, Group 5: Cmpd B 9 mg/kg po",108 (9) mm^3
same,Weekly Median Tumor Volume (number of animals in parentheses),"D1, Group 6: Cmpd B 12.5 mg/kg po, then 6.25 mg/kg po bid × 11 first day 1 dose (start on day 4)",75 (9) mm^3
same,Weekly Median Tumor Volume (number of animals in parentheses),"D5, Group 3: Cmpd B 25 mg/kg po qd × 14",75 (9) mm^3
same,Weekly Median Tumor Volume (number of animals in parentheses),"D5, Group 4: Cmpd B 6.25 mg/kg po bid × 14 first day 1 dose",75 (9) mm^3
same,Weekly Median Tumor Volume (number of animals in parentheses),"D5, Group 5: Cmpd B 9 mg/kg po",63 (9) mm^3
same,Weekly Median Tumor Volume (number of animals in parentheses),"D5, Group 6: Cmpd B 12.5 mg/kg po, then 6.25 mg/kg po bid × 11 first day 1 dose (start on day 4)",75 (9) mm^3
same,Weekly Median Tumor Volume (number of animals in parentheses),"D10, Group 3: Cmpd B 25 mg/kg po qd × 14",196 (9) mm^3
same,Weekly Median Tumor Volume (number of animals in parentheses),"D10, Group 4: Cmpd B 6.25 mg/kg po bid × 14 first day 1 dose",196 (9) mm^3
same,Weekly Median Tumor Volume (number of animals in parentheses),"D10, Group 5: Cmpd B 9 mg/kg po",172 (9) mm^3
same,Weekly Median Tumor Volume (number of animals in parentheses),"D10, Group 6: Cmpd B 12.5 mg/kg po, then 6.25 mg/kg po bid × 11 first day 1 dose (start on day 4)",259 (9) mm^3
same,% TGI,[1],82%
same,% TGI,[2],89%
same,% TGI,Group 5: Cmpd B 9 mg/kg po,89%
same,% TGI,[3],84%
same,Weekly Median Tumor Volume (number of animals in parentheses),"D15, Group 3: Cmpd B 25 mg/kg po qd × 14",196 (9) mm^3
same,Weekly Median Tumor Volume (number of animals in parentheses),"D15, Group 4: Cmpd B 6.25 mg/kg po bid × 14 first day 1 dose",126 (9) mm^3
same,Weekly Median Tumor Volume (number of animals in parentheses),"D15, Group 5: Cmpd B 9 mg/kg po",126 (9) mm^3
same,Weekly Median Tumor Volume (number of animals in parentheses),"D15, Group 6: Cmpd B 12.5 mg/kg po, then 6.25 mg/kg po bid × 11 first day 1 dose (start on day 4)",172 (9) mm^3
same,Weekly Median Tumor Volume (number of animals in parentheses),"D22, Group 3: Cmpd B 25 mg/kg po qd × 14",446 (9) mm^3
same,Weekly Median Tumor Volume (number of animals in parentheses),"D22, Group 4: Cmpd B 6.25 mg/kg po bid × 14 first day 1 dose",288 (9) mm^3
same,Weekly Median Tumor Volume (number of animals in parentheses),"D22, Group 5: Cmpd B 9 mg/kg po",288 (9) mm^3
same,Weekly Median Tumor Volume (number of animals in parentheses),"D22, Group 6: Cmpd B 12.5 mg/kg po, then 6.25 mg/kg po bid × 11 first day 1 dose (start on day 4)",550 (9) mm^3
same,Weekly Median Tumor Volume (number of animals in parentheses),"D29, Group 3: Cmpd B 25 mg/kg po qd × 14",864 (5) mm^3
same,Weekly Median Tumor Volume (number of animals in parentheses),"D29, Group 4: Cmpd B 6.25 mg/kg po bid × 14 first day 1 dose",509 (8) mm^3
same,Weekly Median Tumor Volume (number of animals in parentheses),"D29, Group 5: Cmpd B 9 mg/kg po",566 (8) mm^3
same,Weekly Median Tumor Volume (number of animals in parentheses),"D29, Group 6: Cmpd B 12.5 mg/kg po, then 6.25 mg/kg po bid × 11 first day 1 dose (start on day 4)",1008 (9) mm^3
same,Weekly Median Tumor Volume (number of animals in parentheses),"D36, Group 3: Cmpd B 25 mg/kg po qd × 14",867 (4) mm^3
same,Weekly Median Tumor Volume (number of animals in parentheses),"D36, Group 4: Cmpd B 6.25 mg/kg po bid × 14 first day 1 dose",600 (6) mm^3
same,Weekly Median Tumor Volume (number of animals in parentheses),"D36, Group 5: Cmpd B 9 mg/kg po",600 (5) mm^3
same,Weekly Median Tumor Volume (number of animals in parentheses),"D36, Group 6: Cmpd B 12.5 mg/kg po, then 6.25 mg/kg po bid × 11 first day 1 dose (start on day 4)",900 (2) mm^3
same,Weekly Median Tumor Volume (number of animals in parentheses),"D43, Group 3: Cmpd B 25 mg/kg po qd × 14",1015 (2) mm^3
same,Weekly Median Tumor Volume (number of animals in parentheses),"D43, Group 4: Cmpd B 6.25 mg/kg po bid × 14 first day 1 dose",1268 (3) mm^3
same,Weekly Median Tumor Volume (number of animals in parentheses),"D43, Group 5: Cmpd B 9 mg/kg po",1008 (1) mm^3
same,Weekly Median Tumor Volume (number of animals in parentheses),"D43, Group 6: Cmpd B 12.5 mg/kg po, then 6.25 mg/kg po bid × 11 first day 1 dose (start on day 4)",1470 (1) mm^3
same,Weekly Median Tumor Volume (number of animals in parentheses),"D50, Group 3: Cmpd B 25 mg/kg po qd × 14",1327 (2) mm^3
same,Weekly Median Tumor Volume (number of animals in parentheses),"D50, Group 4: Cmpd B 6.25 mg/kg po bid × 14 first day 1 dose",976 (2) mm^3
same,Weekly Median Tumor Volume (number of animals in parentheses),"D50, Group 5: Cmpd B 9 mg/kg po",1470 (1) mm^3
same,% TGD,[1],62%
same,% TGD,[2],91%
same,% TGD,Group 5: Cmpd B 9 mg/kg po,94%
same,% TGD,[3],69%
same,MTV (n) D54,[1],1470 (1) mm^3
same,MTV (n) D54,[2],486 (1) mm^3
same,MTV (n) D15,[1],196 (9) mm^3
same,MTV (n) D15,[2],126 (9) mm^3
same,MTV (n) D15,Group 5: Cmpd B 9 mg/kg po,126 (9) mm^3
same,MTV (n) D15,[3],172 (9) mm^3
same,T − C,[1],12.1 days
same,T − C,[2],17.8 days
same,T − C,Group 5: Cmpd B 9 mg/kg po,18.3 days
same,T − C,[3],13.4 days
same,Mean TTE,[1],35.4 days
same,Median TTE,[1],31.6 days
same,Mean TTE,[2],40.7 days
same,Median TTE,[2],37.3 days
same,Mean TTE,Group 5: Cmpd B 9 mg/kg po,37.8 days
same,Median TTE,Group 5: Cmpd B 9 mg/kg po,37.8 days
same,Mean TTE,[3],34.9 days
same,Median TTE,[3],32.9 days
same,Individual TTE values,"* = non-treatment-related death, Group 4: Cmpd B 6.25 mg/kg po bid × 14 first day 1 dose",54.0 days and 51.4 days and 50.0 days and 35.1 days and 36.9 days and *40.0 days and 29.0 days and 37.7 days and 31.5 days
same,Individual TTE values,[1],23.4 days and 28.3 days and 54.0 days and 50.1 days and 26.5 days and 31.6 days and 38.2 days and 40.2 days and 26.8 days
same,Individual TTE values,Group 5: Cmpd B 9 mg/kg po,31.8 days and 42.8 days (2×) and 33.8 days and 41.7 days and 50.3 days and 30.5 days and 28.2 days and 37.8 days
same,Individual TTE values,[3],32.9 days and 45.6 days and 35.7 days and 29.7 days and 33.3 days and 41.0 days and 31.1 days and 31.8 days and 32.8 days
same,Mean BW Nadir,[1],—
same,Mean BW Nadir,[2],—
same,Mean BW Nadir,Group 5: Cmpd B 9 mg/kg po,—
same,Mean BW Nadir,[3],—
same,Mean TV(n),"n = 1, Group 5: Cmpd B 9 mg/kg po",1913 mm^3
same,Mean TV(n),"n = 2, Group 3: Cmpd B 25 mg/kg po qd × 14",1635 mm^3
same,Mean TV(n),"n = 2, Group 4: Cmpd B 6.25 mg/kg po bid × 14 first day 1 dose",1076 mm^3
same,No. of NTR,[1],0
same,No. of NTR,[2],1
same,No. of NTR,Group 5: Cmpd B 9 mg/kg po,0
same,No. of NTR,[3],0
same,No. of PR,[1],0
same,No. of PR,[2],0
same,No. of PR,Group 5: Cmpd B 9 mg/kg po,0
same,No. of PR,[3],0
